# Test results from publication PMC12442245, “Activity Analysis of the P2X Receptor Antagonist PPADS against Signal Transducer and Activator of Transcription Proteins” (Chembiochem, 2025).
# “And” between values parts separate entries of the source, which are not always exact repeats. Equal entries are not always repeated.
# Experiments:
# Format in all cases: binding
# STAT4 = biological target: T1, STAT4 (Homo sapiens, UniProt Q14765); assay: CETSA, STAT4 in total cell lysates from NK-92 cells; conditions: NK-92 cell lysates, 100 μM compound
# T1 sequence (Q14765 1-748): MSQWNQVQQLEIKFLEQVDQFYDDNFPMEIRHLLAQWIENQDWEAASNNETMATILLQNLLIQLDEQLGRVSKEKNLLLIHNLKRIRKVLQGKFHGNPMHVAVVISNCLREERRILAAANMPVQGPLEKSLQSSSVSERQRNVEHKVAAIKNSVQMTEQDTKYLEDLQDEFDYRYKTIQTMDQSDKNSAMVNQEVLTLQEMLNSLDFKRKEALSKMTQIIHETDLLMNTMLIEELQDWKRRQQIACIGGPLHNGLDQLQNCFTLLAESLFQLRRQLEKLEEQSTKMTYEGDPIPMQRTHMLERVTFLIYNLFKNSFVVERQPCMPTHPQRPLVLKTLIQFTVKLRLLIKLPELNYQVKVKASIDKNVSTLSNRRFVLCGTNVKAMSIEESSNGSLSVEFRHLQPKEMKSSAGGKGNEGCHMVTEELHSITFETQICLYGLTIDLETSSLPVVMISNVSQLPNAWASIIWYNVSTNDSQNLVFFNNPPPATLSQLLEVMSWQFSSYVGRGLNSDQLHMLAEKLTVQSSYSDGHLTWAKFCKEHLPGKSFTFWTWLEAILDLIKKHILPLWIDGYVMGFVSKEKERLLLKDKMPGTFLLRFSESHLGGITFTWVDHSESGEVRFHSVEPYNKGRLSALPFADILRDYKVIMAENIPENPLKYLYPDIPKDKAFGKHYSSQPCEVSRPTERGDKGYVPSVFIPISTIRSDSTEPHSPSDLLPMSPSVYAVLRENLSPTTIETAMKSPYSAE
# Experimental: (§1) One method by which binding of small molecules to their expected targets in cell lysates can be inferred is the cellular thermal shift assay (CETSA).^[ [23], [24] ^] This assay is based on the observation that reversible protein binding by a small molecule typically stabilizes the bound protein against thermal denaturation. […]
# NK-92 cells (DSMZ) were cultured in α-MEM containing 12.5% fetal bovine serum, 12.5% horse serum, 2 mM L-glutamine, penicillin/streptomycin antibiotics and 50 U/ml human recombinant IL-2 (all reagents from Gibco at Thermo Fisher). […]
# whole-cell lysates, cells were harvested by centrifugation, washed once with ice-cold PBS and resuspended at 3 x 10^6 cells per 100 µl in TBS supplemented with EDTA-free Halt Protease Inhibitor Cocktail (Fisher Scientific). […]
# (§2) CETSA experiments were performed based on the published protocol.[8] […] The soluble fractions were analyzed by Western blotting.
# (§3) Treated lysates were separated by SDS-PAGE on a 10% gel and transferred to nitrocellulose membrane using a TransBlot semi-dry blotting protocol (Bio-Rad Laboratories). Proteins of interest were detected using monoclonal rabbit primary antibodies (Cell Signaling), anti-rabbit-HRP-secondary antibody (Dako) and Pierce ECL Plus chemiluminescence reagent (Thermo Fisher). Bands were visualized using an ImageQuant system (GE Healthcare) and quantitated with ImageJ software (NIH).[9]
# [1] = system: total STAT5 (STAT5a and STAT5b); assay: CETSA, total STAT5 in lysates from K562 cells; conditions: K562 cell lysates, 100 μM
# Experimental: as §1
# K562 cells (DSMZ) were cultured […]
# in RPMI 1640 medium containing 10% FBS, 2 mM L-glutamine and penicillin/streptomycin. For whole-cell lysates, cells were harvested by centrifugation, washed once with ice-cold PBS and resuspended at 3 x 10^6 cells per 100 µl in TBS supplemented with EDTA-free Halt Protease Inhibitor Cocktail (Fisher Scientific). Cells were lysed using three freeze-thaw cycles using liquid nitrogen and a room-temperature water bath. […]
# as §2, §3
# STAT3 = STAT3 (Homo sapiens, UniProt P40763); assay: CETSA, STAT3 in total cell lysates from NK-92 cells; parameters: the endogenous full‐length proteins (between 748 and 793 amino acids for STAT3/4/5a/5b); endogenous in cells; host or cells: NK-92 cells (DSMZ), whole-cell lysate; conditions: NK-92 cell lysates, 100 μM
# Chain of STAT3 (P40763 whole entry, species assumed, the tested form may be a part): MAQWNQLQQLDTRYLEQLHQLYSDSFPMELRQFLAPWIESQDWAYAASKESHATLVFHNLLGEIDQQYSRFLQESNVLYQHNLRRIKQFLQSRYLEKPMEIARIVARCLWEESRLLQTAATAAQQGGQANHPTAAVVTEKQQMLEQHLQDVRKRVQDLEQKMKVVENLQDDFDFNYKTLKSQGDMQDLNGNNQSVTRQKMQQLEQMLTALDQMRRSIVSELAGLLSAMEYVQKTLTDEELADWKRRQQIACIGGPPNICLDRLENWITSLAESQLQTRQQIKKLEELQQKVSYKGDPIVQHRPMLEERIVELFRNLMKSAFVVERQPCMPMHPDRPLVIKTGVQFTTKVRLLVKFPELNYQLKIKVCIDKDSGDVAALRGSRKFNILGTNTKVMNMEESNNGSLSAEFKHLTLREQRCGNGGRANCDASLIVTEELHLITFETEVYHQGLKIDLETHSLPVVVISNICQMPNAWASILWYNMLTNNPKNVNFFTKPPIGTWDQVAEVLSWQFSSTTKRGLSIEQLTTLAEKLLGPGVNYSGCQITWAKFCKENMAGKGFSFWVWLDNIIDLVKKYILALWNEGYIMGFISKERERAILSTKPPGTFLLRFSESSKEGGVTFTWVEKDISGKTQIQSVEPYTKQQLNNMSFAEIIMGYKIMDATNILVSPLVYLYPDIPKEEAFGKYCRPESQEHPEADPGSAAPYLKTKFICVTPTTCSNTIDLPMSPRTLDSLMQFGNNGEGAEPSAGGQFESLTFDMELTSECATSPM
# Source text: STAT3 was again chosen as a specificity control for CETSA analysis, because it had already been used as control in HTRF assays (Figure 2B), and because we had previously developed CETSA for STAT3 in NK‐92 lysates.^[ [11] ^] […] The relatively low thermal shifts obtained even with the high‐affinity control peptides are consistent with the fact that the SH2 domain of STATs only comprises a small proportion (≈100 amino acids) of the endogenous full‐length proteins (between 748 and 793 amino acids for STAT3/4/5a/5b).^[ [25] ^] […] The CETSA experiments were carried out in cell lysates, not in living cells, to account for the putative inability of PPADS and iso‐PPADS to cross the cell membrane owing to their large number of negative charges. […]
# as §2, §3
compound,measurement,setting,value
"Cc1nc(/N=N/c2ccc(S(=O)(=O)O)cc2S(=O)(=O)O)c(COP(=O)(O)O)c(C=O)c1O [PPADS, pyridoxalphosphate‐6‐azophenyl‐2',4'‐disulfonic acid]",increase of the aggregation temperature of STAT4 (ΔT agg),STAT4,1.1 °C
same,aggregation temperature of STAT4 (T agg),STAT4; DMSO control 48.9 ± 0.4 °C,50.0 ± 0.4 °C and 50.0 °C
same,ΔT agg of total STAT5,[1],2.7 °C
same,aggregation temperature of total STAT5 (T agg),[1]; DMSO control 49.0 °C,51.7 °C
same,increase of the aggregation temperature of STAT3 (ΔT agg),STAT3,0.57 °C
same,aggregation temperature of STAT3 (T agg),STAT3; DMSO control 51.47 °C,52.04 °C
